Test results published in PubChem BioAssay (NCI).
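1) Cells in 96-well plates. 2) Compound, 48 h, 5 concentrations. 3) Linear interpolation between surrounding doses. 4) Unreached endpoint = highest concentration. GI50 marks 50% less growth. The concentration for full growth arrest is given as TGI.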 Where a SMILES comes first, the peptide text is derived from it. [ ]: non-standard residue; d: D form. The star is where a group is joined. Octanoyl = CCCCCCCC(=O)*; Aib = CC(C)(N)C(=O)O; tBu = CC(C)(C)*

Experiments:
Assay in all cases: growth of human tumour cells (NCI), 48 h
SK-MEL-28 melanoma = test system: SK-MEL-28 melanoma
HOP-62 NSCLC = test system: HOP-62 NSCLC
OVCAR-3 ovarian = test system: OVCAR-3 ovarian
SNB-75 CNS = test system: SNB-75 CNS
KM12 colon = test system: KM12 colon
TK-10 renal = test system: TK-10 renal
UACC-257 melanoma = test system: UACC-257 melanoma
PC-3 prostate = test system: PC-3 prostate
NCI-H226 lung = test system: NCI-H226 lung
M14 melanoma = test system: M14 melanoma
OVCAR-4 ovarian = test system: OVCAR-4 ovarian
NCI-H522 lung = test system: NCI-H522 lung
NCI/ADR-RES ovarian = test system: NCI/ADR-RES ovarian
SK-OV-3 ovarian = test system: SK-OV-3 ovarian

| SMILES | TGI (SK-MEL-28 melanoma) | TGI (HOP-62 NSCLC) | TGI (OVCAR-3 ovarian) | TGI (SNB-75 CNS) | TGI (KM12 colon) | TGI (TK-10 renal) | TGI (UACC-257 melanoma) | TGI (PC-3 prostate) | TGI (NCI-H226 lung) | TGI (M14 melanoma) | TGI (OVCAR-4 ovarian) | TGI (NCI-H522 lung) | TGI (NCI/ADR-RES ovarian) | TGI (SK-OV-3 ovarian) | GI50 (HOP-62 NSCLC) | GI50 (NCI/ADR-RES ovarian) | GI50 (M14 melanoma) | GI50 (UACC-257 melanoma) | GI50 (SNB-75 CNS) |
| --- | --- | --- | --- | --- | --- | --- | --- | --- | --- | --- | --- | --- | --- | --- | --- | --- | --- | --- | --- |
| COc1ccc(O)c(C=NCCCN=Cc2cc(OC)ccc2O)c1 | > 100 µM | > 100 µM | 37.3 µM | 64.7 µM | 64.6 µM | > 100 µM | 69.5 µM | > 100 µM | 73.2 µM | > 100 µM | > 100 µM | > 100 µM |  |  |  |  |  |  |  |
| Cc1ccc(S(=O)(=O)OC2C(C3COC(C)(C)O3)OC3OC(C)(C)OC32)cc1 (centres undefined) | > 100 µM | > 100 µM | > 100 µM | > 100 µM | > 100 µM | > 100 µM | > 100 µM | > 100 µM | > 100 µM | > 100 µM | > 100 µM | > 100 µM | > 100 µM |  |  |  |  |  |  |
| CCCCCCCCCCCCCCCCOCC(COP(=O)([O-])OCC[N+](C)(C)C)OCCCCCCCCCCCCCCCC (centres undefined) | > 100 µM | > 100 µM | > 100 µM | > 100 µM | > 100 µM |  | > 100 µM |  | > 100 µM |  | > 100 µM | > 100 µM | > 100 µM | > 100 µM |  |  |  |  |  |
| COc1cc2c3c(n(CCCNCCCNCCCn4c5c(c6ccccc6c4=O)C(=O)c4ccccc4-5)c(=O)c2cc1OC)-c1cc2c(cc1C3=O)OCO2 |  | 0.695 µM |  |  |  |  |  |  |  | 2.15 µM |  |  | > 67.1 µM |  | < 0.0434 µM | > 40.5 µM | 0.987 µM |  |  |
| Clc1c(Cl)c2c(Cl)c(Cl)c1C[P+](c1ccccc1)(c1ccccc1)CC[P+](c1ccccc1)(c1ccccc1)Cc1c(Cl)c(Cl)c(c(Cl)c1Cl)C[P+](c1ccccc1)(c1ccccc1)CC[P+](c1ccccc1)(c1ccccc1)C2 | 5.13 µM | 18.5 µM | 8.97 µM | 14.2 µM | 6.12 µM | 9.41 µM | 6.38 µM |  | 20.2 µM | 16.2 µM | 8.59 µM | 9.26 µM |  | 21.7 µM |  |  |  |  |  |
| c1ccc(/N=N/Nc2ccc(-c3nc4ccccc4[nH]3)cc2)nc1 | 38.7 µM | 30.2 µM | 28.2 µM | 40.5 µM | 30.7 µM | 35.6 µM | 62.6 µM | 47.2 µM | 65.4 µM | > 100 µM | 35.8 µM | 33.9 µM | > 100 µM | 27.9 µM |  |  |  |  |  |
| O=C(c1cccnc1)N1N=C(c2ccc(Cl)cc2)CC1(O)c1cc(F)c(Cl)cc1Cl (centres undefined) | 91.7 µM | 91.3 µM | 26.9 µM | 37.3 µM | > 100 µM | > 100 µM | 63.7 µM | 43.4 µM | 43.3 µM | 91.9 µM | > 100 µM | 92.1 µM | > 100 µM | > 100 µM |  |  |  |  |  |
| COc1cc([N+](=O)[O-])ccc1NC1=CC(=O)CCC1 | > 100 µM | > 100 µM | > 100 µM | > 100 µM | > 100 µM | > 100 µM | > 100 µM | > 100 µM | > 100 µM | > 100 µM | > 100 µM |  | > 100 µM | > 100 µM |  |  |  |  |  |
| O=[n+]1c2ccccc2n([O-])c2cc(Br)ccc21 | > 100 µM | > 100 µM | 9.04 µM | 77.7 µM | 30.9 µM | 72.9 µM | 34.9 µM |  | 48.5 µM | > 100 µM | 45.2 µM | 30.2 µM | 68.9 µM |  |  |  |  |  |  |
| Oc1ccc(Cn2c(-c3ccc(O)c(O)c3)nc3ccccc32)cc1O | 78 µM | 38 µM | 41.3 µM | 39.4 µM | 35 µM | 38 µM | > 100 µM | > 100 µM | 22.4 µM | 42.2 µM | 54.1 µM | 17.1 µM | > 100 µM | 59.6 µM |  |  |  |  |  |
| CC(=O)Oc1ccccc1C(=O)O | > 100 µM | > 100 µM | > 100 µM | > 100 µM | > 100 µM | > 100 µM | > 100 µM | > 100 µM | > 100 µM | > 100 µM | > 100 µM | > 100 µM | > 100 µM | > 100 µM |  |  |  |  |  |
| CCOC(=O)CCC(NC(=O)Cc1ccc(Oc2nc3ccccc3nc2-c2cccs2)cc1)C(=O)OCC (centres undefined) | > 100 µM | 11.8 µM | 29.2 µM |  | > 100 µM | 69.2 µM | > 100 µM | > 100 µM | 86.2 µM | > 100 µM | 94 µM | > 100 µM | > 100 µM |  |  |  |  |  |  |
| CCO[C@]12C[C@H](OC)[C@@]3(O)CC(C1[C@H]3O)C13C4C2[C@H](OC)C1[C@](COC)(CN4CC)[C@H](O)C[C@@H]3OC (some centres undefined) | > 100 µM | > 100 µM |  |  |  | > 100 µM | > 100 µM |  | > 100 µM | > 100 µM | > 100 µM |  |  | > 100 µM |  |  |  |  |  |
| NS(=O)(=O)c1ccc(CNc2nc(-c3cccs3)nc3ccc(I)cc23)cc1 | 40.2 µM | 49.9 µM | 30.1 µM | 47.1 µM | 23.7 µM | 28.1 µM | 27.5 µM | 53.3 µM | 40.1 µM | 28.4 µM | 60.5 µM | 28.2 µM | 77.6 µM | 52.6 µM |  |  |  | 14 µM |  |
| COc1ccc(N2C(=O)C3c4[nH]c5cccc(C)c5c4C4CCC(C(C)(C)C)CC4C3C2=O)cc1 (centres undefined) | > 10 µM | > 10 µM | > 10 µM | > 10 µM | > 10 µM | > 10 µM |  | > 10 µM | > 10 µM | > 10 µM | 2.26 µM | > 10 µM | > 10 µM | > 10 µM |  |  |  |  |  |
| CC#C[I+]c1ccccc1 | 50.4 µM | 96.6 µM | 33.9 µM | > 100 µM | 40.1 µM | 30.4 µM | 51.7 µM |  | > 100 µM | 37.1 µM | 46.3 µM | 13.1 µM |  | 99.1 µM |  |  |  |  |  |
| O=[N+]([O-])c1cc(-[n+]2cc([O-])on2)ccc1F | 29.8 µM | 30.3 µM | 32.6 µM | 27 µM | 31.5 µM | 33.1 µM | 31.6 µM | 35.1 µM | 47 µM | 29.6 µM | 30.4 µM | 22.2 µM | 52 µM | 35.8 µM |  |  |  |  |  |
| O=[N+]([O-])O.[Ga] | > 10000 µM | 1960 µM | 6920 µM | > 7110 µM | > 10000 µM | > 7990 µM | > 10000 µM | > 10000 µM | 9510 µM | > 10000 µM | 5040 µM | 4490 µM | > 10000 µM | 390 µM |  |  |  |  | 1250 µM |
| CCCCCCCC(=O)NC(C)(C)C(=O)NC(COC(C)(C)C)C(=O)NC(CC(C)C)C(=O)NC(C)(C)C(=O)NC(COC(C)(C)C)C(=O)NC(COC(C)(C)C)C(=O)NC(CC(C)C)C(=O)NC(C)(C)C(=O)NC(COC(C)(C)C)C(=O)NC(C(=O)NC(CC(C)C)C(=O)OC)C(C)CC (centres undefined) (Octanoyl-[Aib]S(tBu)L[Aib]S(tBu)S(tBu)L[Aib]S(tBu)IL-OMe; configuration not given here) | > 25 µM | > 25 µM | 10.9 µM | 16.4 µM | 22 µM | 21.8 µM | > 25 µM | 9.36 µM | 21.1 µM | > 25 µM | > 25 µM | > 25 µM | > 25 µM | > 25 µM |  |  |  |  |  |
| CCCCN1C(=O)NC(Cc2ccccc2)C1=O (centres undefined) | > 100 µM | > 100 µM |  | > 100 µM | > 100 µM | > 100 µM | > 100 µM |  | > 100 µM | > 100 µM |  | > 100 µM |  |  |  |  |  |  |  |
| Cn1c(-c2ccc(/C=N\N3CCN(/N=C/c4ccc(-c5c[n+]6ccsc6n5C)cc4)CC3)cc2)c[n+]2ccsc12 |  |  | > 100 µM | 93.1 µM | > 100 µM | > 100 µM | 67.9 µM | > 100 µM | > 100 µM | > 100 µM | > 100 µM | > 100 µM | > 100 µM | > 100 µM |  |  |  |  |  |
